Values after ≈ are worked out from the molar mass of the structure shown.
Legend:
Assay type in all cases: functional
[1] = system: Cydia pomonella; test: Insecticidal activity against Cydia pomonella (codling moth) at 6 mg/kg assessed as growth regulation measured as number of head capsules of larvae after 10 days of continuous exposure Rvb = (1.5 +/- 0.2%)
[2] = system: Cydia pomonella; test: Insecticidal activity against Cydia pomonella (codling moth) assessed as mortality at 8 mg/kg diet topically measured after 10 days of continuous exposure (reference value: 3.3 +/- 3.3%); details: topical, 240 h
[3] = system: Cydia pomonella; test: Insecticidal activity against Cydia pomonella (codling moth) at 18 mg/kg assessed as growth regulation measured as number of head capsules of larvae after 10 days of continuous exposure Rvb = (1.5 +/- 0.2%)
[4] = system: Cydia pomonella; test: Antifeedant activity against Cydia pomonella (codling moth) at 4 mg/kg diet topically measured after 5 days of continuous exposure (reference value: 6.7 +/- 6.7%)
[5] = system: Cydia pomonella; test: Antifeedant activity against Cydia pomonella (codling moth) at 20 mg/kg diet topically measured after 5 days of continuous exposure (reference value: 6.7 +/- 6.7%)
[6] = system: Cydia pomonella; test: Insecticidal activity against Cydia pomonella (codling moth) assessed as mortality at 18 mg/kg diet topically measured after 5 days of continuous exposure (reference value: 0%); details: topical, 120 h
[7] = system: Cydia pomonella; test: Insecticidal activity against Cydia pomonella (codling moth) assessed as mortality at 12 mg/kg diet topically measured after 10 days of continuous exposure (reference value: 3.3 +/- 3.3%); details: topical, 240 h
[8] = system: Cydia pomonella; test: Insecticidal activity against Cydia pomonella (codling moth) assessed as mortality at 4 mg/kg diet topically measured after 5 days of continuous exposure (reference value: 0%); details: topical, 120 h
[9] = system: Cydia pomonella; test: Insecticidal activity against Cydia pomonella (codling moth) at 1 mg/kg assessed as growth regulation measured as number of head capsules of larvae after 10 days of continuous exposure Rvb = (1.5 +/- 0.2%)
[10] = system: Cydia pomonella; test: Antifeedant activity against Cydia pomonella (codling moth) at 6 mg/kg diet topically measured after 5 days of continuous exposure (reference value: 6.7 +/- 6.7%)
[11] = system: Cydia pomonella; test: Insecticidal activity against Cydia pomonella (codling moth) at 4 mg/kg assessed as growth regulation measured as number of head capsules of larvae after 5 days of continuous exposure (reference value: 0.2 +/- 0.2%)
[12] = system: Cydia pomonella; test: Antifeedant activity against Cydia pomonella (codling moth) at 2 mg/kg diet topically measured after 5 days of continuous exposure (reference value: 6.7 +/- 6.7%)
[13] = system: Cydia pomonella; test: Antifeedant activity against Cydia pomonella (codling moth) at 8 mg/kg diet topically measured after 10 days of continuous exposure (reference value: 6.7 +/- 6.7%)
[14] = system: Cydia pomonella; test: Insecticidal activity against Cydia pomonella (codling moth) assessed as mortality at 18 mg/kg diet topically measured after 10 days of continuous exposure (reference value: 3.3 +/- 3.3%); details: topical, 240 h
[15] = system: Cydia pomonella; test: Antifeedant activity against Cydia pomonella (codling moth) at 2 mg/kg diet topically measured after 10 days of continuous exposure (reference value: 6.7 +/- 6.7%)
[16] = system: Cydia pomonella; test: Insecticidal activity against Cydia pomonella (codling moth) at 16 mg/kg assessed as growth regulation measured as number of head capsules of larvae after 10 days of continuous exposure Rvb = (1.5 +/- 0.2%)
[17] = system: Cydia pomonella; test: Antifeedant activity against Cydia pomonella (codling moth) at 4 mg/kg diet topically measured after 10 days of continuous exposure (reference value: 6.7 +/- 6.7%)
[18] = system: Cydia pomonella; test: Insecticidal activity against Cydia pomonella (codling moth) assessed as mortality treated diet topically measured after 10 days of continuous exposure; details: topical, 240 h
[19] = system: Cydia pomonella; test: Insecticidal activity against Cydia pomonella (codling moth) at 8 mg/kg assessed as growth regulation measured as number of head capsules of larvae after 5 days of continuous exposure (reference value: 0.2 +/- 0.2%)
[20] = system: Cydia pomonella; test: Antifeedant activity against Cydia pomonella (codling moth) at 6 mg/kg diet topically measured after 10 days of continuous exposure (reference value: 6.7 +/- 6.7%)
[21] = system: Cydia pomonella; test: Insecticidal activity against Cydia pomonella (codling moth) assessed as mortality at 8 mg/kg diet topically measured after 5 days of continuous exposure (reference value: 0%); details: topical, 120 h
[22] = system: Cydia pomonella; test: Insecticidal activity against Cydia pomonella (codling moth) at 4 mg/kg assessed as growth regulation measured as number of head capsules of larvae after 10 days of continuous exposure Rvb = (1.5 +/- 0.2%)
[23] = system: Cydia pomonella; test: Insecticidal activity against Cydia pomonella (codling moth) assessed as mortality diet topically measured after 5 days of continuous exposure; details: topical, 120 h
[24] = system: Cydia pomonella; test: Insecticidal activity against Cydia pomonella (codling moth) assessed as mortality at 2 mg/kg diet topically measured after 5 days of continuous exposure (reference value: 0%); details: topical, 120 h
[25] = system: Cydia pomonella; test: Insecticidal activity against Cydia pomonella (codling moth) assessed as mortality at 20 mg/kg diet topically measured after 10 days of continuous exposure (reference value: 3.3 +/- 3.3%); details: topical, 240 h
[26] = system: Cydia pomonella; test: Insecticidal activity against Cydia pomonella (codling moth) at 2 mg/kg assessed as growth regulation measured as number of head capsules of larvae after 10 days of continuous exposure Rvb = (1.5 +/- 0.2%)
[27] = system: Cydia pomonella; test: Insecticidal activity against Cydia pomonella (codling moth) at 20 mg/kg assessed as growth regulation measured as number of head capsules of larvae after 5 days of continuous exposure (reference value: 0.2 +/- 0.2%)
[28] = system: Cydia pomonella; test: Antifeedant activity against Cydia pomonella (codling moth) at 1 mg/kg diet topically measured after 5 days of continuous exposure (reference value: 6.7 +/- 6.7%)
[29] = system: Cydia pomonella; test: Insecticidal activity against Cydia pomonella (codling moth) at 20 mg/kg assessed as growth regulation measured as number of head capsules of larvae after 10 days of continuous exposure Rvb = (1.5 +/- 0.2%)
[30] = system: Cydia pomonella; test: Insecticidal activity against Cydia pomonella (codling moth) at 12 mg/kg assessed as growth regulation measured as number of head capsules of larvae after 5 days of continuous exposure (reference value: 0.2 +/- 0.2%)
[31] = system: Cydia pomonella; test: Antifeedant activity against Cydia pomonella (codling moth) at 16 mg/kg diet topically measured after 10 days of continuous exposure (reference value: 6.7 +/- 6.7%)
[32] = system: Cydia pomonella; test: Insecticidal activity against Cydia pomonella (codling moth) at 2 mg/kg assessed as growth regulation measured as number of head capsules of larvae after 5 days of continuous exposure (reference value: 0.2 +/- 0.2%)
[33] = system: Cydia pomonella; test: Insecticidal activity against Cydia pomonella (codling moth) at 12 mg/kg assessed as growth regulation measured as number of head capsules of larvae after 10 days of continuous exposure Rvb = (1.5 +/- 0.2%)
[34] = system: Cydia pomonella; test: Insecticidal activity against Cydia pomonella (codling moth) assessed as mortality at 1 mg/kg diet topically measured after 5 days of continuous exposure (reference value: 0%); details: topical, 120 h
[35] = system: Cydia pomonella; test: Antifeedant activity against Cydia pomonella (codling moth) at 16 mg/kg diet topically measured after 5 days of continuous exposure (reference value: 6.7 +/- 6.7%)
[36] = system: Cydia pomonella; test: Insecticidal activity against Cydia pomonella (codling moth) assessed as mortality at 16 mg/kg diet topically measured after 5 days of continuous exposure (reference value: 0%); details: topical, 120 h

## CC1=C(O)C(=O)C=C2C1=CC=C1[C@@]2(C)CC[C@@]2(C)[C@@H]3C[C@](C)(O)C(=O)C[C@]3(C)CC[C@]12C [20ALPHA-HYDROXYTINGENONE]
[1]
  Activity: 0.6
[2]
  mortality at 8 mg/kg: 43.3%
[3]
  Activity: 0
[4]
  Activity: 46.7%
[5]
  Activity: 100%
[6]
  mortality at 18 mg/kg: 86.7%
[7]
  mortality at 12 mg/kg: 60%
[8]
  mortality at 4 mg/kg: 6.7%
[9]
  Activity: 1.2
[10]
  Activity: 83.3%
[11]
  Activity: 0
[12]
  Activity: 36.7%
[13]
  Activity: 80%
[14]
  mortality at 18 mg/kg: 93.3%
[15]
  Activity: 3.3%
[16]
  Activity: 0
[17]
  Activity: 33.3%
[18]
  LC50: 8.5 mg/mL (≈ 19.5 mM)
[19]
  Activity: 0
[20]
  Activity: 53.3%
[21]
  mortality at 8 mg/kg: 3.3%
[22]
  Activity: 0.6
[23]
  LC50: 13 mg/mL (≈ 29.8 mM)
[24]
  mortality at 2 mg/kg: 0%
[25]
  mortality at 20 mg/kg: 100%
[26]
  Activity: 1.4
[27]
  Activity: 0
[28]
  Activity: 6.7%
[29]
  Activity: 0
[30]
  Activity: 0
[31]
  Activity: 100%
[32]
  Activity: 0.1
[33]
  Activity: 0.3
[34]
  mortality at 1 mg/kg: 3.3%
[35]
  Activity: 100%
[36]
  mortality at 16 mg/kg: 60%
